From patent publication US20040248887A1, “Inhibitors of cathepsin S” (IRM LLC, priority 2003, published 2004)
pKi: −log10 of the molar value.

Target: Cathepsin S (Homo sapiens, UniProt P25774)
Assay: Cathepsin S inhibition, fluorogenic peptide substrate kinetic assay
Format: biochemical
Conditions: Table II; Cathepsin S inhibition constant, pH5.5; read-out: Ki Cat. S
Summary of the method: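 Ki values derive from apparent constants fitted to progress curves, corrected for competition with substrate via [S] and Km. Kinetics were monitored at 380 nm excitation/450 nm emission, after substrate addition (Ac-HPVK-ACC, 50 μM final) to start the reaction.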

Cathepsin S, sequence (P25774 115-331, species assumed): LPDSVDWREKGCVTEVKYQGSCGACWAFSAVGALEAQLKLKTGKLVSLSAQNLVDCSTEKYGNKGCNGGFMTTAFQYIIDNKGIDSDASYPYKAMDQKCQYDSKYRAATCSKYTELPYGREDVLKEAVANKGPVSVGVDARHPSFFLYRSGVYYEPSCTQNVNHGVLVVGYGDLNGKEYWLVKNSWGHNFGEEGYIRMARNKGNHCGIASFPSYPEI

Row | pKi | SMILES
1 | > 7.00 | C[C@@H](CNc1ccccc1F)NC(=O)[C@H](CC1CCCCC1)NC(=O)c1ccc(-c2cccc(F)c2)o1 [Compound 95, 5-(3-Fluoro-phenyl)-furan-2-carboxylic acid {2-cyclohexyl-1-(S)-[2-(2-fluoro-phenylamino)-1-(S)-methyl-ethylcarbamoyl]-ethyl}-amide]
2 | > 7.00 | C[C@@H](CNc1ccccc1S(C)(=O)=O)NC(=O)[C@H](CC1CCCCC1)NC(=O)c1ccc(-c2cccc(F)c2)o1 [Compound 116, 5-(3-Fluoro-phenyl)-furan-2-carboxylic acid {2-cyclohexyl-1-(S)-[2-(2-methanesulfonyl-phenylamino)-1-(S)-methyl-ethylcarbamoyl]-ethyl}-amide]
3 | > 6.00 | Cn1cnc(S(=O)(=O)N[C@@H](CC2CCCCC2)C(=O)NCCN2CCc3cc(F)ccc32)c1 [Compound 255, (S)-3-Cyclohexyl-N-[2-(5-fluoro-2,3-dihydro-indol-1-yl)-ethyl]-2-(1-methyl-1H-imidazole-4-sulfonylamino)-propionamide]
4 | > 6.00 | O=C(N[C@@H](CC1CCCCC1)C(=O)NCCN1CCc2cc(F)ccc21)C1CCN(S(=O)(=O)c2ccc(F)cc2)CC1 [Compound 66, 1-(4-Fluoro-benzenesulfonyl)-piperidine-4-carboxylic acid (S)-{2-cyclohexyl-1-[2-(5-fluoro-2,3-dihydro-indol-1-yl)-ethylcarbamoyl]-ethyl}-amide]
5 | > 7.00 | O=C(N[C@@H](CC1CCCCC1)C(=O)N[C@@H](COCc1ccccc1)CN1CCc2cc(F)ccc21)OCc1ccccc1 [Compound 169]
6 | > 7.00 | COCCC(=O)N[C@@H](CC1CCCCC1)C(=O)N[C@@H](C)CNc1ccc(OC(F)(F)F)cc1 [Compound 123, 3-Cyclohexyl-2-(S)-(3-methoxy-propionylamino)-N-[1-(S)-methyl-2-(4-trifluoromethoxy-phenylamino)-ethyl]-propionamide]
7 | > 7.00 | COc1ccc(NC[C@H](C)NC(=O)[C@H](CC2CCCCC2)NC(=O)c2ccc(-c3cccc(F)c3)o2)cc1 [Compound 86, 5-(3-Fluoro-phenyl)-furan-2-carboxylic acid {2-cyclohexyl-1-(S)-[2-(4-methoxy-phenylamino)-1-(S)-methyl-ethylcarbamoyl]-ethyl}-amide]
8 | > 6.00 | O=C(NCCN1CCc2cc(F)ccc21)[C@H](CC1CCCCC1)NS(=O)(=O)c1ccc(S(=O)(=O)c2ccccc2)s1 [Compound 256, (S)-2-(5-Benzenesulfonyl-thiophene-2-sulfonylamino)-3-cyclohexyl-N-[2-(5-fluoro-2,3-dihydro-indol-1-yl)-ethyl]-propionamide]
9 | > 7.00 | C[C@@H](CNc1ccc(OC(F)(F)F)cc1)NC(=O)[C@H](CC1CCCCC1)NC(=O)OC1CCS(=O)(=O)CC1 [Compound 186, (S,S)-{2-Cyclohexyl-1-[1-methyl-2-(4-trifluoromethoxy-phenylamino)-ethylcarbamoyl]-ethyl}-carbamic acid 1,1-dioxo-hexahydro-1λ^6-thiopyran-4-yl ester]
10 | > 7.00 | C[C@@H](CNc1ccc(OC(F)(F)F)cc1)NC(=O)[C@H](CC1CCCCC1)NC(=O)OC1CCOCC1 [Compound 184, (S,S)-{2-Cyclohexyl-1-[1-methyl-2-(4-trifluoromethoxy-phenylamino)-ethylcarbamoyl]-ethyl}-carbamic acid tetrahydro-pyran-4-yl ester]
11 | > 7.00 | C[C@@H](C(=O)N[C@@H](CCC1CCCCC1)C(=O)NCCN1CCc2cc(F)ccc21)c1ccccc1 [Compound 102, 4-Cyclohexyl-N-[2-(5-fluoro-2,3-dihydro-indol-1-yl)-ethyl]-2-(S)-(2-(R)-phenyl-propionylamino)-butyramide]
12 | > 6.00 | O=C(NCCN1CCc2cc(F)ccc21)[C@H](CC1CCCCC1)NS(=O)(=O)c1cccs1 [Compound 235, (S)-3-Cyclohexyl-N-[2-(5-fluoro-2,3-dihydro-indol-1-yl)-ethyl]-2-(thiophene-2-sulfonylamino)-propionamide]
13 | > 7.00 | C[C@@H](CNc1cccc(S(C)(=O)=O)c1)NC(=O)[C@H](CC1CCCCC1)NC(=O)c1ccc(-c2ccc(F)cc2)o1 [Compound 106, 5-(4-Fluoro-phenyl)-furan-2-carboxylic acid {2-cyclohexyl-1-(S)-[2-(3-methanesulfonyl-phenylamino)-1-(S)-methyl-ethylcarbamoyl]-ethyl}-amide]
14 | > 7.00 | CS(=O)(=O)NCc1ccc(C(=O)N[C@@H](CC2CCCCC2)C(=O)NCCN2CCc3cc(F)ccc32)cc1 [Compound 79, N-(S)-{2-cyclohexyl-1-[2-(5-fluoro-2,3-dihydro-indol-1-yl)-ethylcarbamoyl]-ethyl}-4-(methanesulfonylamino-methyl)-benzamide]
15 | > 7.00 | Cc1cccc(S(=O)(=O)N[C@@H](CC2CCCCC2)C(=O)NCCN2CCc3cc(F)ccc32)c1 [Compound 243, (S)-3-Cyclohexyl-N-[2-(5-fluoro-2,3-dihydro-indol-1-yl)-ethyl]-2-(toluene-3-sulfonylamino)-propionamide]
16 | > 6.00 | COc1ccc(CC(=O)N[C@@H](CC2CCCCC2)C(=O)NCCN2CCc3cc(F)ccc32)cc1 [Compound 6, (S)-3-Cyclohexyl-N-[2-(5-fluoro-2,3-dihydro-indol-1-yl)-ethyl]-2-[2-(4-methoxy-phenyl)-acetylamino]-propionamide]
17 | > 6.00 | O=C(NCCN1CCc2cc(F)ccc21)[C@H](CC1CCCCC1)NS(=O)(=O)c1ccc(OC(F)F)cc1 [Compound 240, (S)-3-Cyclohexyl-2-(4-difluoromethoxy-benzenesulfonylamino)-N-[2-(5-fluoro-2,3-dihydro-indol-1-yl)-ethyl]-propionamide]
18 | > 7.00 | C[C@@H](CNc1ccccc1Cl)NC(=O)[C@H](CC1CCCCC1)NC(=O)c1ccc(-c2cccc(F)c2)o1 [Compound 113, 5-(3-Fluoro-phenyl)-furan-2-carboxylic acid {1-(S)-[2-(2-chloro-phenylamino)-1-(S)-methyl-ethylcarbamoyl]-2-cyclohexyl-ethyl}-amide]
19 | > 6.00 | O=C(N[C@@H](CC1CCCCC1)C(=O)NCCN1CCc2cc(F)ccc21)C1CCN(C(=O)c2ccccc2)CC1 [Compound 5, 1-Benzoyl-piperidine-4-carboxylic acid (S)-{2-cyclohexyl-1-[2-(5-fluoro-2,3-dihydro-indol-1-yl)-ethylcarbamoyl]-ethyl}-amide]
20 | > 6.00 | COc1ccc(S(=O)(=O)N[C@@H](CC2CCCCC2)C(=O)NCCN2CCc3cc(F)ccc32)cc1 [Compound 239, (S)-3-Cyclohexyl-N-[2-(5-fluoro-2,3-dihydro-indol-1-yl)-ethyl]-2-(4-methoxy-benzenesulfonylamino)-propionamide]
21 | > 7.00 | O=C(C[C@@H](CN1CCc2cc(F)ccc21)NC(=O)[C@H](CC1CCCCC1)NC(=O)OCc1ccccc1)OCc1ccccc1 [Compound 168, 3-(S)-(2-(S)-Benzyloxycarbonylamino-3-cyclohexyl-propionylamino)-4-(5-fluoro-2,3-dihydro-indol-1-yl)-butyric acid benzyl ester]
22 | > 6.00 | C[C@@H](CN1CC(C)(C)c2cc(F)ccc21)NC(=O)[C@H](CC(C)(C)C)NC(=O)C1CCOCC1 [Compound 270, Tetrahydro-pyran-4-carboxylic acid {1-(S)-[2-(5-fluoro-3,3-dimethyl-2,3-dihydro-indol-1-yl)-1-(S)-methyl-ethylcarbamoyl]-3,3-dimethyl-butyl}-amide]
23 | > 5.00 | COc1cccc(C(=O)N[C@@H](CCC2CCCCC2)C(=O)NCCN2CCc3ccc(F)cc32)c1 [Compound 10, (S)-N-{3-Cyclohexyl-1-[2-(6-fluoro-2,3-dihydro-indol-1-yl)-ethylcarbamoyl]-propyl}-3-methoxy-benzamide]
24 | > 6.00 | C[C@@H](CNc1cc(Cl)ccc1F)NC(=O)[C@H](CC1CCCCC1)NC(=O)c1ccc(-c2cccc(F)c2)o1 [Compound 97, 5-(3-Fluoro-phenyl)-furan-2-carboxylic acid {1-(S)-[2-(5-chloro-2-fluoro-phenylamino)-1-(S)-methyl-ethylcarbamoyl]-2-cyclohexyl-ethyl}-amide]
25 | > 7.00 | C[C@@H](CNc1ccc(OC(F)(F)F)cc1)NC(=O)[C@H](CC1CCCCC1)NC(=O)C1CCOCC1 [Compound 135, Tetrahydropyran-4-carboxylic acid {2-cyclohexyl-1-(S)-[1-(S)-methyl-2-(4-trifluoromethoxy-phenylamino)-ethylcarbamoyl]-ethyl}-amide]
26 | > 5.00 | C[C@@H](CN1CC(C)(C)c2cc(F)ccc21)NC(=O)[C@H](CC(C)(C)C)NC(=O)[C@H]1CCCO1 [Compound 271, Tetrahydro-furan-2-(R)-carboxylic acid {1-(S)-[2-(5-fluoro-3,3-dimethyl-2,3-dihydro-indol-1-yl)-1-(S)-methyl-ethylcarbamoyl]-3,3-dimethyl-butyl}-amide]
27 | > 7.00 | C[C@@H](CNc1cccc(C(=O)N(C)C)c1)NC(=O)[C@H](CC1CCCCC1)NC(=O)c1ccc(-c2cccc(F)c2)o1 [Compound 120, 5-(3-Fluoro-phenyl)-furan-2-carboxylic acid {2-cyclohexyl-1-(S)-[2-(3-dimethylcarbamoyl-phenylamino)-1-(S)-methyl-ethylcarbamoyl]-ethyl}-amide]
28 | > 6.00 | Cc1cccc(C(=O)N[C@H](C(=O)NCCN2CCc3cc(F)ccc32)C2CCCCC2)c1 [Compound 193, N-((S)-(2-(5-fluoroindolin-1-yl)ethylcarbamoyl)(cyclohexyl)methyl)-3-methylbenzamide]
29 | > 7.00 | CSc1ccc(NC[C@H](C)NC(=O)[C@H](CC2CCCCC2)NC(=O)c2ccc(-c3cccc(F)c3)o2)cc1 [Compound 117, 5-(3-Fluoro-phenyl)-furan-2-carboxylic acid {2-cyclohexyl-1-(S)-[1-(S)-methyl-2-(4-methylsulfanyl-phenylamino)-ethylcarbamoyl]-ethyl}-amide]

Row | SMILES | pKi
30 | CC(C)(C)OC(=O)N[C@@H](CC1CCCCC1)C(=O)N[C@@H](CC(=O)OCc1ccccc1)CN1CCc2cc(F)ccc21 [Compound 261, (S,S)-3-(2-tert-Butoxycarbonylamino-3-cyclohexyl-propionylamino)-4-(5-fluoro-2,3-dihydro-indol-1-yl)-butyric acid benzyl ester] | > 7.00
